Consider seven molecules from patent publication US6177425A, “Pyrrolopyrrolone derivatives” (Glaxo Wellcome Inc., priority 1997, dated 2001).

By pIC50 is commonly meant −log10 of the IC50, conventionally taken in molar units. A low value points to a large IC50.

Molecules are shown by their SMILES. pIC50: −log10 of the molar value. Structures can show the parent of a compound that is named as a salt.

For the test, the target named is T1, human neutrophil elastase (Homo sapiens, UniProt P08246).
T1 sequence (P08246 30-247 limits assumed): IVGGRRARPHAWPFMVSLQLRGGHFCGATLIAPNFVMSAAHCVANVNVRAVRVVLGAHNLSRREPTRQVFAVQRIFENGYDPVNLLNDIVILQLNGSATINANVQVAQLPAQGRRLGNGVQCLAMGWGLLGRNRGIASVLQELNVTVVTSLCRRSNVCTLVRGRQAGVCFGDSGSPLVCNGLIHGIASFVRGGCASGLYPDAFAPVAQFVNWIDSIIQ
In words: In vitro Assays of Human Neutrophil Elastase. The format is biochemical. The following applies: purified human neutrophil elastase 11.8 nM, pH 8.6, 15 min incubation at 30° C., 0.6 mM MeO-succinyl-alanyl-alanyl-prolyl-valyl-p-nitroanilide, 405 nm. As for the experimental part:
In vitro Assays of Human Neutrophil Elastase Assay contents: 50 mM Tris/HCl (pH 8.6) 150 mM NaCl 11.8 nM purified human neutrophil elastase Suitable concentrations of compound under test diluted with water from a 10 mM stock solution in dimethylsulphoxide. Values above are final concentrations after the addition of substrate solution (see below). The mixture above is incubated for fifteen minutes at 30° C. at which time the remaining elastase activity is measured for 10 minutes in a BioTek 340i plate-reader, after the addition of 0.6 mM MeO-succinyl-alanyl-alanyl-prolyl-valyl-p-nitroanilide. The rate of increase in absorbance at 405 nm is proportional to elastase activity. Enzyme activity is plotted against concentration of inhibitor and an IC50 determined using curve fitting software. 1. The compounds of Examples 1 to 7 were tested in the in vitro elastase test described earlier in the description.

`CCC[C@H]1C(=O)N(S(C)(=O)=O)[C@H]2CN(S(=O)(=O)c3ccc(NC(C)=O)cc3)C[C@H]12` (relative stereo) [Example 3, rel-N-[4-(1-Methanesulfonyl-2-oxo-3R-propylhexahydro-(3aS,6aR)-pyrrolo[3,4-b]pyrrole-5-sulfonyl)-phenyl]acetamide] gave a pIC50 of 6.64.

`CCC[C@H]1C(=O)N(S(C)(=O)=O)[C@H]2CN(C(=O)CCCN3CCCCC3)C[C@H]12` (relative stereo) [Example 2, rel-(3R,3aS,6aR)-1-Methanesulfonyl-5-(4-piperidin-1-yl-butyryl)-3-propyl-hexahydro-pyrrolo[3,4-b]pyrrol-2-one] showed a pIC50 of 6.05.

The molecule `CCC[C@H]1C(=O)N(S(C)(=O)=O)[C@H]2CN(C(=O)c3ccc(CN4CCOCC4)cc3)C[C@H]12` (relative stereo) [Example 5, rel-(3R,3aS,6aR)-1-Methanesulfonyl-5-(4-morpholin-4-ylmethyl-benzoyl)-3-propyl-hexahydro-pyrrolo[3,4-b]pyrrol-2-one hydrochloride] showed a negative logarithm of the IC50 (pIC50) of 6.65.

As to `CCC[C@H]1C(=O)N(S(C)(=O)=O)[C@H]2CN(C(=O)c3cc(CN4CCOCC4)on3)C[C@H]12` (relative stereo) [Example 6, rel-(3R,3aS,6aR)-1-Methanesulfonyl-5-(5-morpholin-4-ylmethyl-isoxazole-3-carbonyl)-3-propyl-hexahydro-pyrrolo[3,4-b]pyrrol-2-one hydrochloride], the pIC50 was 6.84.

Take `CCC[C@H]1C(=O)N(S(C)(=O)=O)[C@H]2CN(C(=O)C=CCN3CCCCC3)C[C@H]12` (relative stereo) [Example 1, rel-(3R,3aS,6aR)-1-Methanesulfonyl-5-(4-piperidin-1-yl-but-2-enoyl)-3-propyl-hexahydro-pyrrolo[3,4-b]pyrrol-2-one hydrochloride]: the negative logarithm of the IC50 (pIC50) was 6.64.

Take `CCC[C@H]1C(=O)N(S(C)(=O)=O)[C@H]2CN(C(=O)c3cc(CN(C)C)on3)C[C@H]12` (relative stereo) [Example 7, rel-(3R,3aS,6aR)-5-(5-Dimethylaminomethyl-isoxazole-3-carbonyl)-1-methanesulfonyl-3-propyl-hexahydro-pyrrolo[3,4-b]pyrrol-2-one hydrochloride]: the pIC50 was 6.40.

`CCC[C@H]1C(=O)N(S(C)(=O)=O)[C@H]2CN(C(=O)c3ccc(CN4CCCCC4)cc3)C[C@H]12` (relative stereo) [Example 4, rel-(3R,3aS,6aR)-1-Methanesulfonyl-5-(4-piperidin-1-ylmethyl-benzoyl)-3-propyl-hexahydro-pyrrolo[3,4-b]pyrrol-2-one hydrochloride] gave a pIC50 of 6.53.
